Measurements reported in US7579432B2, “Cyclic peptides as G-protein-coupled receptor antagonists” (Promics Pty Limited, priority 2001, dated 2009).

Assays:
gut ischemia-reperfusion = test: Intestinal ischemia-reperfusion injury in rats
Description: Female Wistar rats (250-300 g, n=132) were fasted and given only water for 12 h prior to all experiments. Animals were anaesthetised by the intraperitoneal injection of 80 mg kg^−1 ketamine and 10 mg kg^−1 xylazine and throughout the procedure rats were placed on a heating pad to maintain normal body temperature. […] A non-traumatic occlusive device for the artery was fashioned from a silk suture looped though a length of polyethylene tubing. The SMA was occluded by applying traction to the ends of the loop. […] (1) in 5% ethanol or sterile, pyrogen-free saline in 0-2 ml volume. Infusions were made over a 2 min period. […] (1) (0.3, 1, 10 mg kg^−1) was achieved by gavage (0.2 ml saline in 25% ethanol) 60 min prior to SMA occlusion. Intestinal ischemia was induced by clamping the SMA for 30 min, after which the occlusive suture was removed, then reperfusion was monitored for another 120 min. Sham-operated rats were treated in an identical fashion, with the omission of vascular occlusion, and were infused with 0.2 ml of sterile, pyrogen-free saline or gavaged with 0.2 ml of saline in 25% ethanol. Blood samples (50 μL) were collected into heparinised Eppendorf tubes at regular intervals over the 180 min duration of the experiments for the estimation of PMN numbers. In a different series of identical experiments, whole blood was collected at regular intervals over the 180 min and allowed to clot on ice, and serum or plasma samples collected and stored at −20° C. for later measurement of tumour necrosis factor-α (TNF-α), haptoglobin (Hp) and aspartate aminotransferase (AST) concentrations. At the end of the 120 min reperfusion period, the animals were euthanased with an overdose of pentobarbital A section of the occluded ileum was removed, the lumen rinsed with saline, and the intestine was blotted dry, then weighed. Specimens were dried in an oven for 24 hours at 80° C. to obtain the tissue dry weight. Intestinal oedema was determined by assessing the wet and dry tissue weight ratio. Additionally, segments of both ischaemic and normal intestine were harvested and rinsed with saline and immediately fixed in 10% buffered formaldehyde-saline for histological studies.
Blood (50 μL) for PMN counts was placed into heparinised tubes and then layered over an equal volume of Histopaque 1083 (Sigma, U.S.A.), PMNs were isolated and cell number counted on a haemocytometer. Concentrations of PMN's values are presented as mean percentage±SEM of the values obtained immediately prior to SMA occlusion.
Serum TNF-α concentrations were measured using an enzyme-linked immunosorbent assay, (OptEIA, Pharmingen, USA), according to the manufacturers instructions. Concentrations of TNF-α in serum samples were determined by linear regression analysis from the standard curve.
Plasma AST (AST/GOT; Sigma, USA) concentrations were measured according to manufacturers instructions within 48 h of collecting plasma. Plasma AST concentrations were derived from calibration curve. Results are expressed in Sigma-Franke (SF) units/ml.
Specimens were fixed in 10% formaldehyde-saline, embedded in paraffin wax, sectioned serially, and stained with haematoxylin and eosin. Tissues were read and scored by a trained observer in a blinded fashion. The degree of intestinal tissue injury was determined using a previously described graded scale ranging from 0-8 (Chiu et al., 1970).

[1] = Plasma levels after topical dermal administration; type: in vivo, rat; conditions: dermal application, 50 mg/kg, DMSO/distilled H2O or PG/H2O
Description: Female and male Wistar rats (200-250 g) were anaesthetized with 1 mL of zoletil (50 mg/kg) and xylazine (10 mg/kg; Lyppard, Australia), which was injected intraperitoneally. An area of 5×10 cm was shaved and marked on the lower abdominal area of the rat, on to which the dose of drug was applied. A stock solution containing 10 mg/ml of C5a antagonist was dissolved in solvents propylene glycol or dimethylsulfoxide at varying concentrations with water and smeared evenly on the shaved abdominal area of the rat with a spatula. A heating pad was used to maintain the body temperature of the rats and blood samoles were taken at 15 min intervals for the first hour, and after that at 1 hr intervals for a total period or 3 hours.
Blood samples were immediately added to tubes containing heparin (500 Units/μL) and centrifuged (11000×g). […] The fluid portions of the samples were placed in 1 mL Eppendorf tubes and stored until analysed.
These samples were transferred to 96 well plates and evaporated to dryness using a GeneVac centrifugal evaporator, then reconstituted in the wells with mobile phase (20 μL) Analysis of samples was performed by liquid chromatography (LCMS) using an Agilent 1100 series HPLC equipped with a well plate autosampler coupled with a PE Sciex Qstar Pulsar ESI-TOF mass spectrometer. Concentrations were determined from a standard curve of drug:internal standard peak area ratios. […]

[2] = tested on: neutropenia caused by i.v. LPS; test: LPS-induced neutropenia (endotoxaemia model); type: in vivo, rat; conditions: topical in 50% DMSO/50% H2O, 60 min before LPS 1 mg/kg i.v.
Description: The in vivo pharmacological properties of cyclic antagonists were examined following topical dermal administration. A model of endotoxaemia was used, in which 1 mg/kg Escherichia coli […] (LPS; serotype 55:B5, Sigma, USA, stored at 100 mg ml^−1 in dH2O, 4° C.), was injected i.v into a rat, resulting in acute changes in circulating PMN levels and blood pressure. These parameters were measured in the presence and absence of C5aR antagonists (1 mg/kg i.v or 50 mg/kg/rat topically). […] Female Wistar rats weighing between 200-250 g were used for in vivo testing of all C5a receptor antagonists. Rats were anaesthetized using the procedure described above, and transferred on to a heating pad to ensure that body temperature was maintained throughout the experiment. A catheter was inserted in the femoral vein, secured with a suture and flushed with 100 μL of heparinised saline. […] All agents infused i.v were injected over a 2 min period, and were followed with a subsequent injection of 100 μL of saline to ensure complete delivery of the drug. Whole blood samples (0.1 mL) were collected from the tail vein at the time of drug and LPS or C5a administration. Samples were collected at −15, 0, 5, 10, 15, 30, 60, 90, 120 and 150 min relative to the injection of LPS (zero time), and placed in tubes containing heparin (500 Units/mL). To isolate PMNs, 100 μL of blood was layered on to 200 μL of Histopaque 1077 (Sigma U.S.A.) solution and centrifuged at 400×g for 30 min min at room temperature (25° C.). The supernatant layer of platelet-rich plasma, the monocyte and lymphocyte interface and the separation layer of Histopaque were removed and discarded, leaving the PMN and red blood-cell rich layer. […] The number of PMNs was counted on a haemocytometer. The number of cells at each time point was calculated as a percentage of the total number of cells at time zero, prior to complement challenge or LPS. […] Circulating PMN levels were monitored for 150 min following LPS injection, and the percentage change in PMN levels from zero time, when LPS was injected, was calculated.

dermal Arthus reaction = test: Reverse passive dermal Arthus reaction in the rat; type: in vivo; conditions: intravenous, oral and topical

CC(=O)N[C@@H](Cc1ccccc1)C(=O)N[C@H]1CCCNC(=O)[C@H](CCCNC(=N)N)NC(=O)[C@H](Cc2c[nH]c3ccccc23)NC(=O)[C@@H](CC2CCCCC2)NC(=O)[C@@H]2CCCN2C1=O [Compound 1, Ac-Phe-[Orn-Pro-dCha-Trp-Arg]]
ischemia-reperfusion induced neutropenia (gut ischemia-reperfusion; 1 mg/kg i.v. and 10 mg/kg p.o.): significantly inhibited | gut ischemia-reperfusion induced plasma aspartate aminotransferase (gut ischemia-reperfusion; 1 mg/kg i.v. and 1,10 mg/kg): significantly reduced | gut ischemia-reperfusion induced tissue damage (histopathology) (gut ischemia-reperfusion; 1 mg/kg i.v. and 1,10 mg/kg): significantly reduced | increase in serum haptoglobin levels (gut ischemia-reperfusion; 1 mg/kg i.v. and 1,10 mg/kg p.o.): significantly inhibited | change in serum TNF-α levels (gut ischemia-reperfusion; 1 mg/kg i.v. and 1-10 mg/kg p.o.): completely inhibited | ischemia-reperfusion induced neutropenia (gut ischemia-reperfusion; 1 mg/kg p.o.): no inhibition | appearance of the C5a antagonist in the circulating plasma [1]: ≤ 15 min | persistence of significant plasma levels [1]: at least 4 hr | neutropenia response to i.v. LPS [2]: inhibited the neutropenia response | vascular leakage associated with a dermal Arthus reaction (dermal Arthus reaction; FIG. 1): inhibition | rise in circulating TNFα associated with a dermal Arthus reaction (dermal Arthus reaction; FIG. 2): inhibition
